Data reported in publication PMC12044326 (Clinical Pharmacology in Drug Development, 2025).
Where two headings read alike, the source gives them in different places.

Columns and labels:
[1] = cited from earlier work
CYP2C19 = CYP2C19 (Homo sapiens, UniProt P33261); test: Reversible CYP inhibition in human liver microsomes
in vitro [2] = type: in vitro ADME
Excerpt: (§1) […]. […] […]. […] […]

OATP1B3 = target: T1, OATP1B3 (Homo sapiens, UniProt Q9NPD5)
T1 sequence (Q9NPD5 1-702): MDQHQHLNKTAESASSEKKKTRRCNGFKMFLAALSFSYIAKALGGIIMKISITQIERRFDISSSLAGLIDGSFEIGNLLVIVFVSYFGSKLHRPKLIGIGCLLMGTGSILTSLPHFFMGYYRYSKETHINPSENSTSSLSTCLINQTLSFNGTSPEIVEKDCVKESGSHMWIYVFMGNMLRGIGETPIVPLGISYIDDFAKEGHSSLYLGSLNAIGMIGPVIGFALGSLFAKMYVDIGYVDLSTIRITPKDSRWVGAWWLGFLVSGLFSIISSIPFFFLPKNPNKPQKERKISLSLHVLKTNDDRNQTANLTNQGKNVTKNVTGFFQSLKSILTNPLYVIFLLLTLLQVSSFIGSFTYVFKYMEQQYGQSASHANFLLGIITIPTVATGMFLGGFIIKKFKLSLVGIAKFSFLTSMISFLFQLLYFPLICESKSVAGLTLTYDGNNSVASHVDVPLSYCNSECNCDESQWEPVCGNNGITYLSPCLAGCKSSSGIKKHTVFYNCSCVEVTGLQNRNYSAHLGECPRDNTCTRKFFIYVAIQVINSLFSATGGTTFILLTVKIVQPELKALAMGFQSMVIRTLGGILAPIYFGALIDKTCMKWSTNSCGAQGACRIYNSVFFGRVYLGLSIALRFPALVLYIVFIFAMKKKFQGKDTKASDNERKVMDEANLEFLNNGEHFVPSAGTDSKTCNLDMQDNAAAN

[3] = parameters: method as in earlier work; conditions: ref 7 of supplement, cited from earlier work
OATP1B1 = target: T2, OATP1B1 (Homo sapiens, UniProt Q9Y6L6)
T2 sequence (Q9Y6L6 1-691): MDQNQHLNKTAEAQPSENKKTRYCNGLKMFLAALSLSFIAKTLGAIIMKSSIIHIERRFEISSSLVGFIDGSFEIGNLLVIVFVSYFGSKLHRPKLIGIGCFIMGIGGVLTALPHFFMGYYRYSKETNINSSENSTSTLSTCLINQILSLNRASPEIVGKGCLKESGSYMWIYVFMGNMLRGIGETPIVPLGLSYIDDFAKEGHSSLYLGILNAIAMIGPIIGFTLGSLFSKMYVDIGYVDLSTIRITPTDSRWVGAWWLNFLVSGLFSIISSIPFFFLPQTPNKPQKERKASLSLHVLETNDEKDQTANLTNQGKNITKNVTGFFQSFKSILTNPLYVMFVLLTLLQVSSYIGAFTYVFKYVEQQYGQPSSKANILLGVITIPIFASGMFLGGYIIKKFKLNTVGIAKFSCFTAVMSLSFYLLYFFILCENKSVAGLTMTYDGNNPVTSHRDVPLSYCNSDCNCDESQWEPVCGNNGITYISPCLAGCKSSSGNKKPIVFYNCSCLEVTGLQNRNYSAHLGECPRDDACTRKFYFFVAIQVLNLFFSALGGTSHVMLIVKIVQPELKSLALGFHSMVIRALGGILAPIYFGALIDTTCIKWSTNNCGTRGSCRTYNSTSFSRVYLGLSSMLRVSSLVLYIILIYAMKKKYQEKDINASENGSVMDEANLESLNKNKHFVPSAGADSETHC

in vitro [4] = conditions: human, Caco-2
Procedure: Caco-2 cells were obtained from American Type Culture Collection. Prior to the experiments,
the cells were seeded on 55 cm2 bottom culture dishes (Corning). The cells were cultured at
37°C in a humidified CO2 (5%) incubator and routinely passaged about once a week. Caco-2
cultured in the medium at 37°C in a humidified CO2 (5%) incubator for 23 days to prepare cell
The medium was changed 4 days after seeding and then changed every 2 or 3 days
thereafter. Before the experiment, the integrity of the Caco-2 cell monolayer was checked by
measuring the trans-epithelial electrical resistance (TEER) value. The TEER values of cell
In the transport experiments, the medium of top side of the cells (apical side) and basal
side of the cells (basal side) were replaced with the DMSO-HBSS solution, the inhibitor-HBSS
control), or the test solutions (digoxin and mannitol as substrates). The volumes of the replaced
solutions were 300 μL for the apical side and 1 mL for the basal side. The DMSO-HBSS […]
of the solution in each basal side (receiver side) were collected and measured for the
radioactivity using an LSC. […]
collected and measured for the radioactivity using an LSC. […]
side (receiver side) were collected and measured for the radioactivity using an LSC. […]
in each apical side and each basal side (donor side) were collected and measured for the
radioactivity using an LSC.

UGT1A9 = target: T3, UGT1A9 (Homo sapiens, UniProt O60656); parameters: method as in PMID 38123352; conditions: cited from earlier work
T3 sequence (O60656 26-530): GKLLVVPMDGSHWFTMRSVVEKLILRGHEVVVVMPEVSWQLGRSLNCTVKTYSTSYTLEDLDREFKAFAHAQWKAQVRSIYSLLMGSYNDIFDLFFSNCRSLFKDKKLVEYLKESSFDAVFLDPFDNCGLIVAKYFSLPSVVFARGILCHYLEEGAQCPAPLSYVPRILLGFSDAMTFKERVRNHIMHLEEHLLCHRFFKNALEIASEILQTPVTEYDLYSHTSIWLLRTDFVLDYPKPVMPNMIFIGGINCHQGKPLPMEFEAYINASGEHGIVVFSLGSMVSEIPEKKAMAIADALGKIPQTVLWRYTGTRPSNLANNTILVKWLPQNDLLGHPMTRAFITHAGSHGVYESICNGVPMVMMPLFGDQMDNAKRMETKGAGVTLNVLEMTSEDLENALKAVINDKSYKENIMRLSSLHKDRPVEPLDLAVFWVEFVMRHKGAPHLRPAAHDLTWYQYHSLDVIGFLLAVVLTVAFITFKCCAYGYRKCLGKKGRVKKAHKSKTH

[5] = test system: cholesterol 24‐hydroxylase (CH24H); conditions: 100, 200, and 300 mg BID, cited from earlier work
physchem = type: physicochemical
Excerpt: as §1

[6] = 300 mg single oral dose, geometric mean, clinical ADME study, ref 5 of supplement
[7] = 100 mg QD, Day 1, geometric mean
[8] = 100 mg QD, Day 14, geometric mean
[9] = 300 mg QD, Day 1, geometric mean
[10] = 300 mg QD, Day 14, geometric mean
[11] = 400 mg QD, Day 1, geometric mean
[12] = 400 mg QD, Day 14, geometric mean
[13] = Fig 2C, soticlestat 300 mg alone or with mefenamic acid, n = 14

Sequence of CYP2C19 (P33261 whole entry): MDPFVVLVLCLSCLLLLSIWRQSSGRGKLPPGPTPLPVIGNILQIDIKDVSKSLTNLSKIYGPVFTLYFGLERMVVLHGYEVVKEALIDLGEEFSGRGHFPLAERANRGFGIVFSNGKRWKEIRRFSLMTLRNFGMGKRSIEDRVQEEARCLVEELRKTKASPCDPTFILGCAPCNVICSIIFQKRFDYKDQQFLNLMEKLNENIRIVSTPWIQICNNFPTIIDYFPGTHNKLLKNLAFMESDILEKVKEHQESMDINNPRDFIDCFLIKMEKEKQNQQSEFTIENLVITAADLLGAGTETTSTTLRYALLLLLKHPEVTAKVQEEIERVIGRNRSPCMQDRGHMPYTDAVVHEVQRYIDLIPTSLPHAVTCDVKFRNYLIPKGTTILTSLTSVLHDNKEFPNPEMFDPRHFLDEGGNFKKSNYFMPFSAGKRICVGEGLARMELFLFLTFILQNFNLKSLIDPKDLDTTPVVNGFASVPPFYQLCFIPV

Question: With `O=C(c1cccnc1-c1ccncc1)N1CCC(O)(Cc2ccccc2)CC1` [Soticlestat] as the molecule, how does the AUC0-inf observed [1, 6] read?
Answer: 1.294 µg·h/mL

Question: What about the Cmax observed [1, 6] of the same molecule?
Answer: 0.995 µg/mL

Question: What about the tmax observed ([1]; 300 mg single oral dose, median, clinical ADME study, ref 5 of supplement) of the same molecule?
Answer: 31.8 min

Question: And the “CLIV (mean IV clearance)” value ([1]; IV microdose [14C] soticlestat 50 µg with oral 300 mg)?
Answer: 28.7 L/h

Question: What about the “CYP contribution to clearance” value ([1]; human radiolabeled ADME study) of the same molecule?
Answer: 9.5%

Question: And the “cleared by UGT metabolism” value ([1]; human radiolabeled ADME study)?
Answer: 90.5%

Question: And the “CLR (mean renal clearance)” value ([1]; single oral dose [14C] soticlestat 300 mg, healthy volunteers)?
Answer: 0.22 L/h

Question: And the Ki (CYP2C19)?
Answer: 9.5 µM

Question: And the fumic (CYP2C19; human)?
Answer: 0.88

Question: What about the “inhibition of CYP2C19” value (CYP2C19; microsomes) of the same molecule?
Answer: low double‐digit micromolar values

Question: What about the Main binding protein (in vitro [2]) of the same molecule?
Answer: AAG

Question: And the fraction unbound (in vitro [2])?
Answer: 0.066

Question: And the “inhibition of OATP1B3” value (OATP1B3)?
Answer: did not demonstrate clinically relevant inhibition

Question: What about the AUC0-24 observed [3, 7] of the same molecule?
Answer: 0.422 µg·h/mL

Question: What about the Cmax observed [3, 7] of the same molecule?
Answer: 0.419 µg/mL

Question: What about the tmax observed ([3]; 100 mg QD, Day 1, median) of the same molecule?
Answer: 25.2 min

Question: What about the AUCtau observed [3, 8] of the same molecule?
Answer: 0.443 µg·h/mL

Question: And the Cmax observed [3, 8]?
Answer: 0.469 µg/mL

Question: What about the tmax observed ([3]; 100 mg QD, Day 14, median) of the same molecule?
Answer: 19.8 min

Question: What about the AUC0-24 observed [3, 9] of the same molecule?
Answer: 1.798 µg·h/mL

Question: And the Cmax observed [3, 9]?
Answer: 1.729 µg/mL

Question: What about the tmax observed ([3]; 300 mg QD, Day 1, median) of the same molecule?
Answer: 25.2 min

Question: What about the AUCtau observed [3, 10] of the same molecule?
Answer: 2.497 µg·h/mL

Question: And the Cmax observed [3, 10]?
Answer: 2.866 µg/mL

Question: And the tmax observed ([3]; 300 mg QD, Day 14, median)?
Answer: 19.8 min

Question: And the AUC0-24 observed [3, 11]?
Answer: 2.283 µg·h/mL

Question: And the Cmax observed [3, 11]?
Answer: 2.374 µg/mL

Question: What about the AUCtau observed [3, 12] of the same molecule?
Answer: 2.605 µg·h/mL

Question: What about the Cmax observed [3, 12] of the same molecule?
Answer: 2.709 µg/mL

Question: And the “time‐ or metabolism‐dependent inhibition” value (major CYP enzymes)?
Answer: did not exhibit time‐ or metabolism‐dependent inhibition

Question: What about the “inhibition of OATP1B1” value (OATP1B1) of the same molecule?
Answer: did not demonstrate clinically relevant inhibition

Question: And the Papp (in vitro [4])?
Answer: 234 nm/s

Question: What about the AUC0-inf observed (UGT1A9; [13]) of the same molecule?
Answer: 1.526 µg·h/mL

Question: What about the Cmax observed (UGT1A9; [13]) of the same molecule?
Answer: 1.414 µg/mL

Question: What about the “effect on soticlestat exposure” value (UGT1A9; with mefenamic acid) of the same molecule?
Answer: did not affect soticlestat exposure

Question: And the 24HC reduction ([5]; steady state)?
Answer: ≥ 60%

Question: And the “steady‐state enzyme occupancy” value [5]?
Answer: ≥ 65%

Question: What about the logP (physchem) of the same molecule?
Answer: 1.4

Question: And the pKa (physchem)?
Answer: 3.37

Question: And the Compound type (physchem; PBPK input)?
Answer: Monoprotic base
